What was measured:
Conditions in all cases: human; call rule not given here
Hepatotoxicity [1] = assay: FDA HLAED, lactate dehydrogenase (LDH) increase
Hepatotoxicity [2] = assay: FDA HLAED, serum glutamic oxaloacetic transaminase (SGOT) increase
Hepatotoxicity [3] = assay: FDA HLAED, liver enzyme composite activity
Hepatotoxicity [4] = assay: FDA HLAED, alkaline phosphatase increase
Hepatotoxicity [5] = assay: FDA HLAED, serum glutamic pyruvic transaminase (SGPT) increase
Hepatotoxicity [6] = assay: FDA HLAED, gamma-glutamyl transferase (GGT) increase
For GGT Increase - Index Value in this document: reference of the scale not given here.
For LDH Increase - Index Value in this document: reference of the scale not given here.

Row | Structure (SMILES) | LDH Increase - Activity Score (Hepatotoxicity [1]) | LDH Increase - Index Value (Hepatotoxicity [1]) | LDH Increase - Number of Reports (Hepatotoxicity [1]) | SGOT Increase - Activity Score (Hepatotoxicity [2]) | SGOT Increase - Index Value (Hepatotoxicity [2]) | SGOT Increase - Number of Reports (Hepatotoxicity [2]) | Composite Activity - Active (Hepatotoxicity [3]) | Composite Activity - Marginal (Hepatotoxicity [3]) | Composite Activity - Score (Hepatotoxicity [3]) | Alkaline Phosphatase Increase - Activity Score (Hepatotoxicity [4]) | Alkaline Phosphatase Increase - Index Value (Hepatotoxicity [4]) | Alkaline Phosphatase Increase - Number of Reports (Hepatotoxicity [4]) | SGPT Increase - Activity Score (Hepatotoxicity [5]) | SGPT Increase - Index Value (Hepatotoxicity [5]) | SGPT Increase - Number of Reports (Hepatotoxicity [5]) | GGT Increase - Activity Score (Hepatotoxicity [6]) | GGT Increase - Index Value (Hepatotoxicity [6]) | GGT Increase - Number of Reports (Hepatotoxicity [6])
1 | N=C(N)NCC1COC2(CCCCC2)O1 (stereo unspecified) | Inactive | 0 | < 4 | Inactive | 0 | < 4 | 0 | 0 | Inactive | Inactive | 0 | < 4 | Inactive | 0 | < 4 | Inactive | 0 | < 4
2 | CCCCC(=O)N(Cc1ccc(-c2ccccc2-c2nnn[nH]2)cc1)[C@H](C(=O)O)C(C)C | Inactive | 0 | < 4 | Inactive | 5 | < 4 | 0 | 0 | Inactive | Inactive | 0 | < 4 | Inactive | 7.6 | < 4 | Inactive | 2.5 | < 4
3 | CCOC(=O)[C@H](CCc1ccccc1)N[C@@H](C)C(=O)N1[C@H](C(=O)O)C[C@@H]2CCC[C@@H]21 | Inactive | 0.5 | < 4 | Inactive | 0.8 | < 4 | 0 | 0 | Inactive | Inactive | 1.1 | >= 4 | Inactive | 0.5 | < 4 | Inactive | 1.4 | >= 4
4 | O=C(O)[C@@H](S)[C@@H](S)C(=O)O | Inactive | 43.9 | < 4 | Active | 175.4 | >= 4 | 4 | 0 | Active | Active | 175.4 | >= 4 | Active | 131.6 | < 4 | Active | 87.7 | < 4
5 | COc1ccc(-c2ccc3cc(C(=O)O)ccc3c2)cc1C12CC3CC(CC(C3)C1)C2 | Inactive | 0 | < 4 | Inactive | 0 | < 4 | 0 | 0 | Inactive | Inactive | 0 | < 4 | Inactive | 0 | < 4 | Inactive | 0 | < 4
6 | CNS(=O)(=O)Cc1ccc2[nH]cc(CCN(C)C)c2c1 | Inactive | 0.1 | >= 4 | Inactive | 0.3 | >= 4 | 0 | 0 | Inactive | Inactive | 0.1 | >= 4 | Inactive | 0.3 | >= 4 | Inactive | 0.1 | < 4
7 | COc1ccc(CC2c3cc(OC)c(OC)cc3CC[N+]2(C)CCC(=O)OCCCCCOC(=O)CC[N+]2(C)CCc3cc(OC)c(OC)cc3C2Cc2ccc(OC)c(OC)c2)cc1OC (stereo unspecified) | Inactive | 0 | < 4 | Inactive | 0 | < 4 | 0 | 0 | Inactive | Inactive | 0 | < 4 | Inactive | 0 | < 4 | Inactive | 0 | < 4
8 | CC1=C(CC(=O)O)c2cc(F)ccc2/C1=C\c1ccc([S+](C)[O-])cc1 (stereo unspecified) | Inactive | 0 | < 4 | Inactive | 0 | < 4 | 0 | 0 | Inactive | Inactive | 0 | < 4 | Inactive | 0 | < 4 | Inactive | 0 | < 4
9 | CCOC(=O)[C@H](CCc1ccccc1)N[C@@H](C)C(=O)N1Cc2ccccc2C[C@H]1C(=O)O | Inactive | 0.4 | < 4 | Inactive | 1.1 | >= 4 | 0 | 0 | Inactive | Inactive | 1.4 | >= 4 | Inactive | 1.2 | >= 4 | Inactive | 1.4 | >= 4
10 | CO/N=C(\C(=O)N[C@@H]1C(=O)N2C(C(=O)[O-])=C(C[N+]3(C)CCCC3)CS[C@H]12)c1csc(N)n1 | Inactive | 27.4 | < 4 | Inactive | 13.7 | < 4 | 1 | 0 | Inactive | Inactive | 1 | < 4 | Active | 68.4 | >= 4 | Inactive | 27.4 | < 4
11 | CC(C)(C)NC(=O)[C@@H]1CN(Cc2cccnc2)CCN1C[C@@H](O)C[C@@H](Cc1ccccc1)C(=O)N[C@H]1c2ccccc2C[C@H]1O.O | Active | 44.5 | >= 4 | Active | 137 | >= 4 | 5 | 0 | Active | Active | 54.8 | >= 4 | Active | 116.4 | >= 4 | Active | 13.7 | < 4
12 | CCOC(=O)[C@H](CCc1ccccc1)N[C@@H](C)C(=O)N1CCC[C@H]1C(=O)O | Inactive | 0.6 | >= 4 | Inactive | 1 | >= 4 | 0 | 0 | Inactive | Inactive | 0.9 | >= 4 | Inactive | 0.8 | >= 4 | Inactive | 0.2 | >= 4

From ChEMBL document CHEMBL1697781, “Assessment of the health effects of chemicals in humans: II. Construction of an adverse effects database for QSAR modeling” (Curr Drug Discov Technol, 2004)
